Measured values published in article PMC11414412, “Design and synthesis new indole-based aromatase/iNOS inhibitors with apoptotic antiproliferative activity” (Frontiers in Chemistry, 2024).

What was measured:
A-549 cells = assay: Antiproliferative assay, A-549; type: cell-based; settings: Homo sapiens, A549; A-549 lung cancer cell line; read-out: Antiproliferative activity IC50 ± SEM, A-549
Description: 4.2.2. Assay for antiproliferative effect
To explore the antiproliferative potential of compounds propidium iodide fluorescence assay was performed using different cell lines such as Panc-1 (pancreas cancer cell line), MCF-7 (breast cancer cell line), HT-29 (colon cancer cell line) and A-549 (epithelial cancer cell line), respectively. To calculate the total nuclear DNA, a fluorescent dye (propidium iodide, PI) is used which can attach to the DNA, thus offering a quick and precise technique. PI cannot pass through the cell membrane and its signal intensity can be considered as directly proportional to quantity of cellular DNA. Cells whose cell membranes are damaged or have changed permeability are counted as dead ones. The assay was performed by seeding the cells of different cell lines at a density of 3000-7500 cells/well (in200μl medium) in culture plates followed by incubation for 24h at 37 °C in humidified 5%CO2/95% air atmospheric conditions. The medium was removed; the compounds were added to the plates at 10 μM concentrations (in 0.1% DMSO) in triplicates, followed by incubation for 48h. DMSO (0.1%) was used as control. After incubation, medium was removed followed by the addition of PI (25 μl, 50μg/mL in water/medium) to each well of the plates. At - 80 °C, the plates were allowed to freeze for 24 h, followed by thawing at 25 °C. A fluorometer (Polar-Star BMG Tech) was used to record the readings at excitation and emission wavelengths of 530 and 620 nm for each well. The percentage cytotoxicity of compounds was calculated using […]
Where ATC= Absorbance of treated cells and AC= Absorbance of control. Erlotinib was used as positive control in the assay.

[1] = Cell viability assay (MTT) on normal mammary epithelial cells; type: cell-based, human; settings: human, MCF-10A normal mammary gland epithelial cells, MCF-10A normal cells, 4 days incubation
Description: This test investigates the effects of the new compounds 3–16 on normal cell lines to determine their safety. The normal human mammary gland epithelial (MCF-10 A) cell line was used to test the viability of the tested compounds. After 4 days of incubation on MCF-10 A cells within 50 µM of each investigated compound, cell viability was determined using the MTT assay ([Gomaa et al., 2020]; [Marzouk et al., 2020]).
The normal human mammary gland epithelial (MCF-10A) cell line was used to test the viability of the tested compounds. After 4 days of incubation on MCF-10A cells within 50 µM of each investigated compound, cell viability was determined using the MTT assay ([Gomaa et al., 2020]; [Marzouk et al., 2020]). Refer to Supplementary Appendix SA1 (supp. File) for more details.
4.2. Biological evaluation
4.2.1 Cell Viability assay (MTT assay)
MTT assay was performed to investigate the effect of the synthesized compounds on mammary epithelial cells (MCF-10A). The cells were propagated in medium consisting of Ham's F-12 medium/ Dulbecco's modified Eagle's medium (DMEM) (1:1) supplemented with 10% foetal calf serum, 2 mM glutamine, insulin (10 μg/mL), hydrocortisone (500 ng/mL) and epidermal growth factor (20 ng/mL). Trypsin ethylenediamine tetra acetic acid (EDTA) was used to passage the cells after every 2-3 days. 96-well flat-bottomed cell culture plates were used to seed the cells at a density of 10^4 cells mL-1. The medium was aspirated from all the wells of culture plates after 24 h followed by the addition of synthesized compounds (in 200 μL medium to yield a final concentration of 0.1% (v/v) dimethyl sulfoxide) into individual wells of the plates. Four wells were designated to a single compound. The plates were allowed to incubate at 37°C for 96 h. Afterwards, the medium was aspirated and 3-[4,5-dimethylthiazol-2-yl]-2,5-diphenyltetrazolium bromide (MTT) (0.4 mg/mL) in medium was added to each well and subsequently incubated for 3 h. The medium was aspirated and 150 μL dimethyl sulfoxide (DMSO) was added to each well. The plates were vortexed followed by the measurement of absorbance at 540 nm on a microplate reader. The results were presented as inhibition (%) of proliferation in contrast to controls comprising 0.1%

Bcl-2 = Bcl-2 inhibition assay; type: cell-based, human; settings: lung (A-549) cancer cells; for Bcl-2 Conc: compound at IC50
Description: 4.2.8. Bcl-2 inhibition assay
Mix all reagents thoroughly without foaming before use. Wash the microwells twice with approximately 300 μL Wash Buffer per well with thorough aspiration of microwell contents between washes. Take caution not to scratch the surface of the microwells. After the last wash, empty the wells and tap microwell strips on absorbent pad or paper towel to remove excess Wash Buffer. Use the microwell strips immediately after washing or place upside down on a wet absorbent paper for not longer than 15 minutes. […] Add 100 μL of Sample […]
Diluent in duplicate to all standard wells and to the blank wells. Prepare standard (1:2 dilution) in duplicate ranging from 32 ng/mL to 0.5 ng/mL. Add 100 μL of Sample Diluent, in duplicate, to the blank wells. Add 80 μL of Sample Diluent, in duplicate, to the sample wells. Add 20 μL of each Sample, in duplicate, to the designated wells. Add 50 μL of diluted biotin-conjugate to all wells, including the blank wells. Cover with a plate cover and incubate at room temperature, on a microplate shaker at 100 rpm if available, for 2 hours. Remove plate cover and empty the wells.
Wash microwell strips 3 times as described in step 2. Add 100 μL of diluted Streptavidin-HRP to all wells, including the blank wells. Cover with a plate cover and incubate at room temperature, on a microplate shaker at 100 rpm if available, for 1 hour. Remove plate cover and empty the wells.
Wash microwell strips 3 times as described in step 2. Proceed to the next step. Pipette 100 μl of mixed TMB Substrate Solution to all wells, including the blanks. Incubate the microwell strips at room temperature (18° to 25°C) for about 15 minutes, if available on a rotator set at 100 rpm.
Avoid direct exposure to intense light. The point, at which the substrate reaction is stopped, is often determined by the ELISA reader. Many ELISA readers record absorbance only up to 2.0
O.D. Therefore, the color development within individual microwells must be watched by the person running the assay and the substrate reaction stopped before positive wells are no longer properly detectable. Stop the enzyme reaction by quickly pipetting 100 μL of Stop Solution into each well, including the blank wells. It is important that the Stop Solution is spread quickly and uniformly throughout the microwells to completely inactivate the enzyme. Results must be read immediately after the Stop Solution is added or within one hour i f the microwell strips are stored at 2 - 8°C in the dark. Read absorbance of each microwell on a spectrophotometer using 450 nm as the primary wavelength.

Row | IC50 (A-549 cells) [nM] | Compound | viability at 4 days, 50 µM [1] [%] | Bcl-2 Fold reduction (Bcl-2; at IC50, vs untreated control) | Bcl-2 Conc (Bcl-2) [ng/mL]
1 | 31 ± 3 | CCc1c2cc(Cl)ccc2n2c(C)c(C(=O)OCc3ccccc3)[nH]c(=O)c12 [Compound 5, benzyl 8-chloro-10-ethyl-4-methyl-1-oxo-1,2-dihydropyrazino [1,2-a]indole-3-carboxylate] | 90 | – | –
2 | 25 ± 2 | CCc1c2cc(Cl)ccc2n2cc(-c3ccccc3)[nH]c(=O)c12 [Compound 16, 8-Chloro-10-ethyl-3-phenylpyrazino [1,2-a]indol-1(2H)-one] | 91 | ~6 | 0.85
3 | 23 ± 2 | CCc1c2cc(Cl)ccc2n2cc(Cc3ccccc3)n(C)c(=O)c12 [Compound 12, 3-Benzyl-8-chloro-10-ethyl-2-methylpyrazino[1,2-a]indol-1(2H)-one] | 89 | – | 0.65
4 | 28 ± 2 | CCc1c2cc(Cl)ccc2n2c(C)c(C(=O)NCc3ccccc3)[nH]c(=O)c12 [Compound 7, N-benzyl-8-chloro-10-ethyl-4-methyl-1-oxo-1,2-dihydropyrazino [1,2-a]indole-3-carboxamide] | 88 | – | –
